From patent US12611378B2 (Bausch Health Ireland Limited, priority 2020, dated 2026)

Assay: Regional bioavailability of rifaximin, open-label 5-way crossover study in healthy male subjects
Assay type: in vivo, human
Conditions: based on comparisons of AUC0-24 with AUCact-24, geometric mean
From the text: Blood samples were collected pre-dose and at specified time points after dosing for PK analysis.

A Frel (Regimen B: 150 mg rifaximin SSD delivered to the proximal small bowel) of 36.4%, a Frel (Regimen C: 150 mg rifaximin SSD delivered to the distal small bowel) of 2.09% and a Frel (Regimen D: 150 mg rifaximin SSD delivered to the colon) of 0.216% were found for `CO[C@H]1/C=C/O[C@@]2(C)Oc3c(C)c(O)c4c(O)c(c5c(nc6cc(C)ccn65)c4c3C2=O)NC(=O)/C(C)=C\C=C\[C@H](C)[C@H](O)[C@@H](C)[C@@H](O)[C@@H](C)[C@H](OC(C)=O)[C@@H]1C` [Rifaximin, 4-Deoxy-4′-methylpyrido[1′,2′-1,2]imidazo[5,4-c]rifamycin SV] in this work. For the same molecule, the Frel (Regimen E: 150 mg rifaximin SSD delivered to the mid small bowel) was 7.08%.
